Measurements reported in ChEMBL document CHEMBL3774330, “Design, synthesis of phenstatin/isocombretastatin-oxindole conjugates as antimitotic agents” (Bioorg Med Chem, 2016).

Key:
[1] = Cytotoxicity against human DU145 cells after 48 hrs by MTT assay; assay type: functional, cell-based; conditions: DU-145, 48 h
[2] = system: MCF7; assay: cells; conditions: Homo sapiens, MCF7, 48 h
Description: Cytotoxicity against human MCF7 cells after 48 hrs by MTT assay

[3] = system: HT-29; assay: Cytotoxicity against human HT-29 cells after 48 hrs by MTT assay; assay type: functional, cell-based; conditions: HT-29, 48 h
[4] = system: HepG2; assay: cells; conditions: Homo sapiens, HepG2, 48 h
Description: Cytotoxicity against human HepG2 cells after 48 hrs by MTT assay

[5] = system: A549; assay: cells; conditions: Homo sapiens, A549, 48 h
Description: Cytotoxicity against human A549 cells after 48 hrs by MTT assay

[6] = system: HT-29; assay: Cell cycle arrest in human HT-29 cells assessed as accumulation at G2/M phase at 10 nM after 48 hrs by propidium iodide staining based flow cytometry (reference value: 12.47%); assay type: functional
[7] = system: HT-29; assay: Induction of apoptosis in human HT-29 cells assessed as early apoptotic cells at 50 nM after 48 hrs by Annexin V-FITC/PI staining based flow cytometry (Rvb=1.30%); assay type: functional
[8] = system: HT-29; assay: Cell cycle arrest in human HT-29 cells assessed as accumulation at S phase at 50 nM after 48 hrs by propidium iodide staining based flow cytometry (reference value: 3.02%); assay type: functional
[9] = system: HT-29; assay: Induction of apoptosis in human HT-29 cells assessed as viable cells at 50 nM after 48 hrs by Annexin V-FITC/PI staining based flow cytometry (Rvb=93.82%); assay type: functional; conditions: HT-29, 48 h, read-out: Activity
[10] = system: HT-29; assay: Induction of apoptosis in human HT-29 cells assessed as necrotic cells at 50 nM after 48 hrs by Annexin V-FITC/PI staining based flow cytometry (Rvb=0.82%); assay type: functional
[11] = system: HT-29; assay: Cell cycle arrest in human HT-29 cells assessed as accumulation at G0/G1 phase at 50 nM after 48 hrs by propidium iodide staining based flow cytometry (reference value: 83.01%); assay type: functional
[12] = system: HT-29; assay: Cell cycle arrest in human HT-29 cells assessed as accumulation at G0/G1 phase at 10 nM after 48 hrs by propidium iodide staining based flow cytometry (reference value: 83.01%); assay type: functional
[13] = biological target: Tubulin (Sus scrofa, UniProt P02554+P02550); assay: Inhibition of porcine brain tubulin polymerization after 1 hr by fluorescence assay
[14] = system: HT-29; assay: Induction of apoptosis in human HT-29 cells assessed as late apoptotic cells at 10 nM after 48 hrs by Annexin V-FITC/PI staining based flow cytometry (Rvb=4.06%); assay type: functional
[15] = system: HT-29; assay: Cell cycle arrest in human HT-29 cells assessed as accumulation at sub G1 phase at 50 nM after 48 hrs by propidium iodide staining based flow cytometry (reference value: 1.00%); assay type: functional
[16] = system: HT-29; assay: Induction of apoptosis in human HT-29 cells assessed as necrotic cells at 10 nM after 48 hrs by Annexin V-FITC/PI staining based flow cytometry (Rvb=0.82%); assay type: functional
[17] = system: HT-29; assay: Induction of apoptosis in human HT-29 cells assessed as late apoptotic cells at 50 nM after 48 hrs by Annexin V-FITC/PI staining based flow cytometry (Rvb=4.06%); assay type: functional
[18] = system: HT-29; assay: Cell cycle arrest in human HT-29 cells assessed as accumulation at sub G1 phase at 10 nM after 48 hrs by propidium iodide staining based flow cytometry (reference value: 1.00%); assay type: functional
[19] = system: HT-29; assay: Cell cycle arrest in human HT-29 cells assessed as accumulation at S phase at 10 nM after 48 hrs by propidium iodide staining based flow cytometry (reference value: 3.02%); assay type: functional
[20] = system: HT-29; assay: Induction of apoptosis in human HT-29 cells assessed as reduction in mitochondrial membrane potential at 50 nM after 48 hrs by JC-1 staining based flow cytometry (reference value: 94.3%); assay type: functional; design: scale not given: the % may be the effect or the level left
[21] = system: HT-29; assay: Induction of apoptosis in human HT-29 cells assessed as viable cells at 10 nM after 48 hrs by Annexin V-FITC/PI staining based flow cytometry (Rvb=93.82%); assay type: functional; conditions: HT-29, 48 h, read-out: Activity
[22] = system: HT-29; assay: Induction of apoptosis in human HT-29 cells assessed as early apoptotic cells at 10 nM after 48 hrs by Annexin V-FITC/PI staining based flow cytometry (Rvb=1.30%); assay type: functional
[23] = system: HT-29; assay: Cell cycle arrest in human HT-29 cells assessed as accumulation at G2/M phase at 50 nM after 48 hrs by propidium iodide staining based flow cytometry (reference value: 12.47%); assay type: functional
[24] = system: HT-29; assay: Induction of apoptosis in human HT-29 cells assessed as reduction in mitochondrial membrane potential at 10 nM after 48 hrs by JC-1 staining based flow cytometry (reference value: 94.3%); assay type: functional; design: scale not given: the % may be the effect or the level left

| SMILES | IC50 [1] [µM] | IC50 [2] [µM] | IC50 [3] [µM] | IC50 [4] [µM] | IC50 [5] [µM] | also measured |
| --- | --- | --- | --- | --- | --- | --- |
| C=C(c1ccc(OC)c(/C=C2/C(=O)Nc3ccc(OC)cc32)c1)c1cc(OC)c(OC)c(OC)c1 | 5.04 | 3.16 | 0.107 | 0.897 | 1.48 | – |
| C=C(c1ccc(OC)c(/C=C2/C(=O)Nc3cc(Br)ccc32)c1)c1cc(OC)c(OC)c(OC)c1 | 20.7 | 21 | 8.32 | 10.5 | 12.6 | – |
| C=C(c1ccc(OC)c(/C=C2/C(=O)Nc3ccc(F)cc32)c1)c1cc(OC)c(OC)c(OC)c1 | 3.13 | 3.98 | 0.081 | 0.084 | 1.17 | – |
| COc1ccc(C(=O)c2cc(OC)c(OC)c(OC)c2)cc1/C=C1/C(=O)Nc2ccc(Cl)cc21 | 29.2 | 14.2 | 3.23 | 2.51 | 9.66 | – |
| COc1ccc(C(=O)c2cc(OC)c(OC)c(OC)c2)cc1/C=C1/C(=O)Nc2ccc(F)cc21 | 9.71 | 0.386 | 0.049 | 0.186 | 0.093 | Activity [6]: 47.12%; Activity [7]: 5.42%; Activity [8]: 1.36%; viability at 0.05 µM [9]: 67.2%; Activity [10]: 2.92%; Activity [11]: 41.27%; Activity [12]: 50.06%; IC50 [13]: 1.01 µM; Activity [14]: 9.67%; Activity [15]: 0.18%; Activity [16]: 0.98%; Activity [17]: 24.46%; Activity [18]: 0.35%; Activity [19]: 2.47%; Activity [20]: 81%; viability at 0.01 µM [21]: 86.5%; Activity [22]: 2.88%; Activity [23]: 56.82%; Activity [24]: 83.8% |
| COc1ccc(C(=O)c2cc(OC)c(OC)c(OC)c2)cc1/C=C1/C(=O)Nc2cc(Cl)ccc21 | 32.6 | 15.9 | 13.4 | 15.8 | 11.9 | – |
| C=C(c1ccc(OC)c(/C=C2/C(=O)Nc3ccccc32)c1)c1cc(OC)c(OC)c(OC)c1 | 25.6 | 20.3 | 6.46 | 7.67 | 11.4 | – |
| C=C(c1ccc(OC)c(/C=C2/C(=O)Nc3ccc(Br)cc32)c1)c1cc(OC)c(OC)c(OC)c1 | 19.1 | 18.2 | 5.62 | 8.32 | 7.43 | – |
| COc1ccc2c(c1)/C(=C\c1cc(C(=O)c3cc(OC)c(OC)c(OC)c3)ccc1OC)C(=O)N2 | 7.94 | 0.269 | 0.045 | 0.095 | 0.079 | Activity [6]: 21.69%; Activity [7]: 4.97%; Activity [8]: 0.91%; viability at 0.05 µM [9]: 72.8%; Activity [10]: 3.52%; Activity [11]: 48.01%; Activity [12]: 73.61%; IC50 [13]: 1.23 µM; Activity [14]: 8.34%; Activity [15]: 0.62%; Activity [16]: 0.83%; Activity [17]: 18.7%; Activity [18]: 0.43%; Activity [19]: 4.87%; Activity [20]: 83.1%; viability at 0.01 µM [21]: 88.7%; Activity [22]: 2.16%; Activity [23]: 49.8%; Activity [24]: 87.7% |
| COc1ccc(C(=O)c2cc(OC)c(OC)c(OC)c2)cc1/C=C1/C(=O)Nc2ccc(Br)cc21 | 19.1 | 30.8 | 8.61 | 8.13 | 9.77 | – |
| COc1ccc(C(=O)c2cc(OC)c(OC)c(OC)c2)cc1/C=C1/C(=O)Nc2ccc([N+](=O)[O-])cc21 | 35.6 | 12.3 | 5.13 | 6.92 | 8.91 | – |
| COc1ccc(/C=C\c2cc(OC)c(OC)c(OC)c2)cc1O [COMBRETASTATIN A4] | 0.007 | 0.046 | 0.049 | 0.023 | 0.051 | Activity [6]: 45.76%; Activity [12]: 51.46%; Activity [14]: 20.21%; Activity [16]: 2.93%; Activity [18]: 0.16%; Activity [19]: 2.62%; viability at 0.01 µM [21]: 73.4%; Activity [22]: 3.46%; Activity [24]: 84.2% |
| C=C(c1ccc(OC)c(/C=C2/C(=O)Nc3ccc(Cl)cc32)c1)c1cc(OC)c(OC)c(OC)c1 | 38.9 | 15.2 | 4.26 | 5.62 | 10.9 | – |
| COc1ccc(C(=O)c2cc(OC)c(OC)c(OC)c2)cc1/C=C1/C(=O)Nc2ccccc21 | 26.8 | 10.7 | 2.73 | 3.8 | 6.7 | – |
| C=C(c1ccc(OC)c(/C=C2/C(=O)Nc3cc(Cl)ccc32)c1)c1cc(OC)c(OC)c(OC)c1 | 11.4 | 11.7 | 2.27 | 3.23 | 7.41 | – |
| COc1ccc(C(=O)c2cc(OC)c(OC)c(OC)c2)cc1/C=C1/C(=O)Nc2cc(Br)ccc21 | 12 | 14.7 | 3.71 | 4.02 | 4.57 | – |
| C=C(c1ccc(OC)c(/C=C2/C(=O)Nc3ccc([N+](=O)[O-])cc32)c1)c1cc(OC)c(OC)c(OC)c1 | 19.5 | 13.2 | 1.34 | 3.71 | 5.75 | – |
